Experiment [1] concerns human colorectal cancer cells HCT116. Put plainly: In vivo combination study, HCT116 KRAS mutant colorectal cancer xenograft model. Particulars: oral, 28 days, single agent. The procedure:
(§1) More specifically, the compound of Example 1 is tested in combination with either the pan-RAF inhibitor compound or the CDK4/6 inhibitor compound in HCT116, a KRAS mutant colorectal cancer xenograft model. Also, the compound of Example 1 is tested in combination with either the CDK4/6 inhibitor compound or DC101 in NCI-H441, A549, and NCI-H2122, KRAS mutant non-small cell lung cancer (NSCLC) xenograft models.
The HCT116 combination efficacy study is done in athymic nude rats. Expand human colorectal cancer cells HCT116 (ATCC, #CCL-247) in culture, harvest and inject 5×10e^6 cells in 200 μL of 1:1 HBSS+matrigel solution subcutaneously on to the rear right flank of female NIH nude rats (120-145 gm, Taconic Farms). Measure tumor growth and body weight twice per week beginning the seventh day after the implantation. When average tumor sizes reach 200-300 mm^3, randomize animals and group into groups of five to seven animals. Prepare test compound in an appropriate vehicle (see below) and administer by oral gavage for 21 to 28 days. Tumor response is determined by tumor volume measurement performed twice a week during the course of treatment. Vehicle used in this study is 1% HEC (hydroxy ethyl cellulose)/0.25% Tween® 80/0.05% Antifoam. The compound of Example 1 and the pan-RAF inhibitor compound are formulated in 1% HEC/0.25% Tween® 80/0.05% Antifoam. The CDK4/6 inhibitor compound is formulated in 1% HEC in 25 mM Sodium phosphate buffer, pH 2.

The subject of experiment [2] is human pancreatic cancer cells MIA PACA-2. Put plainly: Xenograft tumor model MIA PACA-2. The format is in vivo, female athymic nude mice. As to conditions: oral gavage; for Delta T/C % or Regr %: negative = regression. As for the experimental part:
The purpose of this assay is to measure reduction in tumor volume in response to test compound administration. Expand human colorectal cancer cells HCT116 (ATCC, # CCL-247) in culture, harvest and inject 5×10e^6 cells in 200 μL of 1:1 HBSS+matrigel solution subcutaneously on to the rear right flank of female athymic nude mice (22-25 g, Harlan Laboratories). Expand human pancreatic cancer cells MIA PACA-2 (ATCC, # CRL-1420) or human non-small cell lung cancer cells CALU-6 (ATCC, #HTB-56) or human colorectal cancer cells COLO-205 (ATCC, #CCL-222) in culture, harvest and inject 5×10e^6 cells in 200 μL of 1:1 HBSS+matrigel solution subcutaneously on to the rear right flank of female athymic nude mice (22-25 g, Harlan Laboratories). Measure tumor growth and body weight twice per week beginning the seventh day after the implantation. When tumor sizes reach 200-400 mm^3, randomize animals and group into groups of eight to ten animals. Prepare test compound in an appropriate vehicle (vehicle: 1% HEC/0.25% Tween 80/0.05% Antifoam) and administer by oral gavage for 14 to 21 days. Tumor response is determined by tumor volume measurement performed twice a week during the course of treatment. Body weight is taken as a general measure of toxicity.
A compound within the scope of invention is tested in this assay run substantially as above.

Experiment [3] has as its system human non-small cell lung cancer cells A549 (KRAS_G12S). Put plainly: In vivo combination study, A549 NSCLC xenograft model. The arrangement: species or system female CB-17 SCID mice. Particulars: single agent. As for the experimental part:
as §1
Combination efficacy is also tested in three KRAS mutant NSCLC xenograft models including A549 (KRAS_G12S) in SCID mice as well as NCI-H441 (KRAS_G12V) and NCI-H2122 (KRAS_G12C) in athymic nude mice. Expand human non-small cell lung cancer cells NCI-H441 (ATCC, #CRL-5807) and NCI-H2122 (ATCC, #CRL-5985) in culture, harvest and inject 5×10e^6 cells in 200 μL of 1:1 HBSS+matrigel solution subcutaneously on to the rear right flank of female athymic nude mice (20-22 gm, Harlan Laboratories). Expand human non-small cell lung cancer cells A549 (ATCC, #CC1-185) in culture, harvest and inject 5×10e^6 cells in 200 μL of 1:1 HBSS+matrigel solution subcutaneously on to the rear right flank of female CB-17 SCID mice (18-20 gm, Taconic Farms). For all cell lines, measure tumor growth and body weight twice per week beginning the seventh day after the implantation. When average tumor sizes reach 200-300 mm^3, randomize animals and group into groups of five to seven animals. Prepare test compound in an appropriate vehicle (see below) and administer by oral gavage (compound of Example 1 and the CDK4/6 inhibitor compound) or intraperitoneally (DC101) for 21 to 28 days. Tumor response is determined by tumor volume measurement performed twice a week during the course of treatment. Vehicle used in these studies is 1% HEC/0.25% Tween® 80/0.05% Antifoam. The compound of Example 1 is formulated in 1% HEC/0.25% Tween® 80/0.05% Antifoam and the CDK4/6 inhibitor compound is formulated in 1% HEC in 25 mM sodium phosphate buffer, pH 2. […] In the same NCI-H441 xenograft model, DC101 in phosphate buffer is also administered intraperitoneally twice per week (BIW) as a single agent or in combination with the compound of Example 1, 50 mpk, QD for 28 days.

For the compound `Cn1nccc1Nc1nccc(-c2cc3c(s2)C(C)(C)N(CCN2CCOCC2)C3=O)n1` [Example 1, 6,6-Dimethyl-2-{2-[(1-methyl-1H-pyrazol-5-yl)amino]pyrimidin-4-yl}-5-[2-(morpholin-4-yl)ethyl]-5,6-dihydro-4H-thieno[2,3-c]pyrrol-4-one], the “Delta T/C %” value is 48% in experiment [1] (10 mg/kg QD); 36% in experiment [1] (20 mg/kg QD); 9% in experiment [3] (50 mg/kg QD, oral, 28 days). Also, the TGI % in experiment [1] (10 mg/kg QD) is given as 52%; in experiment [1] (20 mg/kg QD) it was 64%; in experiment [2] (12.5 mg/kg QD) it was 68%; in experiment [2] (25 mg/kg QD), 98%; in experiment [2] (50 mg/kg QD), 122%; in experiment [2] (100 mg/kg QD), 166%. Further, the “Delta T/C % or Regr %” value in experiment [2] (12.5 mg/kg QD) is reported as 32%; in experiment [2] (25 mg/kg QD), 2%; in experiment [2] (50 mg/kg QD), −22%; in experiment [2] (100 mg/kg QD), −66%. In addition, the tumor growth inhibition in experiment [3] (50 mpk) is on record as 91%.

The record behind these values is patent publication US9469652B2, “ERK inhibitors” (Eli Lilly and Company, priority 2014, dated 2016).
